From patent US20180280377A1, “Imidazo[4,5-c]quinolin-2-one Compounds and Their Use in Treating Cancer” (ASTRAZENECA AB, priority 2015, published 2018)

Experiments:
ATM = target: T1, ATM (Homo sapiens, UniProt Q13315); experiment: ATM cellular potency assay (pATM Ser1981 in irradiated HT29 cells); format: cell-based; details: 1 h compound, X-ray irradiation, pATM (Ser1981); Table 2; read-out: Assay a) ATM Cell IC50
T1 construct: endogenous in cells; host or cells: HT29 cells (ECACC #85061109)
Procedure: (§1) The following assays were used to measure the effects of the compounds of the present invention: a) ATM cellular potency assay; b) PI3K cellular potency assay; c) mTOR cellular potency assay; d) ATR cellular potency assay. During the description of the assays, generally: • i. […] IC50 values were calculated using a smart fitting model in Genedata.
Most ATM molecules in the cell are rapidly phosphorylated on this site after doses of radiation as low as 0.5 Gy, and binding of a phosphospecific antibody is detectable after the introduction of only a few DNA double-strand breaks in the cell.
The rationale of the pATM assay is to identify inhibitors of ATM in cells. HT29 cells are incubated with test compounds for 1 h prior to X-ray-irradiation. 1 h later the cells are fixed and stained for pATM (Ser1981). The fluorescence is read on the arrayscan imaging platform.
The following morning compounds of Formula (I) in 100% DMSO were added to assay plates by acoustic dispensing. After 1 h incubation at 37° C. and 5% CO2, plates (up to 6 at a time) were irradiated using the X-RAD 320 instrument (PXi) with equivalent to 600 cGy. Plates were returned to the incubator for a further 1 h. Then cells were fixed by adding 20 μl of 3.7% formaldehyde in PBS solution and incubating for 20 minutes at r.t. before being washed with 50μl/well PBS, using a Biotek EL405 plate washer. Then 20 μl of 0.1% Triton X100 in PBS was added and incubated for 20 minutes at r.t., to permeabalise cells. Then the plates were washed once with 50 μl/well PBS, using a Biotek EL405 plate washer.
After 1 h incubation at r.t., the plates were washed three times with 50 μl/well PBS, using a Biotek EL405 plate washer, and plates were sealed and kept in PBS at 4° C. until read. Plates were read using an ArrayScan VTI instrument, using an XF53 filter with 10× objective.

ATR = target: T2, ATR (Homo sapiens, UniProt Q13535); experiment: ATR cellular potency assay (pChk1 Ser345 in HT29 cells after 4NQO); format: cell-based; details: pChk1 (Ser 345); Table 2; read-out: Assay b) ATR Cell IC50
T2 construct: endogenous in cells; host or cells: HT29 cells (ECACC #85061109)
Procedure: as §1
ATR is a PI3-kinase-related kinase which phosphorylates multiple substrates on serine or threonine residues in response to DNA damage during or replication blocks. Chk1, a downstream protein kinase of ATR, plays a key role in DNA damage checkpoint control. Activation of Chk1 involves phosphorylation of Ser317 and Ser345 (the latter regarded as the preferential target for phosphorylation/activation by ATR).
The following morning compound of Formula (I) in 100% DMSO were added to assay plates by acoustic dispensing. After 1 h incubation at 37° C. and 5% CO2, 40 nl of 3 mM 4NQO in 100% DMSO was added to all wells by acoustic dispensing, except minimum control wells which were left untreated with 4NQO to generate a null response control. Plates were returned to the incubator for a further 1 h. Then cells were fixed by adding 20 μl of 3.7% formaldehyde in PBS solution and incubating for 20 mins at r.t. Then […] of 0.1% Triton X100 in PBS was added and incubated for 10 minutes at r.t., to permeabalise cells. Then the plates were washed once with […] PBS, using a Biotek EL405 plate washer.
After 2 h incubation at r.t., the plates were washed three times with […] PBS, using a Biotek EL405 plate washer, and plates were then sealed with black plate seals until read. Plates were read using an ArrayScan VTI instrument, using an XF53 filter with 10× objective.

T2 sequence (Q13535 whole entry): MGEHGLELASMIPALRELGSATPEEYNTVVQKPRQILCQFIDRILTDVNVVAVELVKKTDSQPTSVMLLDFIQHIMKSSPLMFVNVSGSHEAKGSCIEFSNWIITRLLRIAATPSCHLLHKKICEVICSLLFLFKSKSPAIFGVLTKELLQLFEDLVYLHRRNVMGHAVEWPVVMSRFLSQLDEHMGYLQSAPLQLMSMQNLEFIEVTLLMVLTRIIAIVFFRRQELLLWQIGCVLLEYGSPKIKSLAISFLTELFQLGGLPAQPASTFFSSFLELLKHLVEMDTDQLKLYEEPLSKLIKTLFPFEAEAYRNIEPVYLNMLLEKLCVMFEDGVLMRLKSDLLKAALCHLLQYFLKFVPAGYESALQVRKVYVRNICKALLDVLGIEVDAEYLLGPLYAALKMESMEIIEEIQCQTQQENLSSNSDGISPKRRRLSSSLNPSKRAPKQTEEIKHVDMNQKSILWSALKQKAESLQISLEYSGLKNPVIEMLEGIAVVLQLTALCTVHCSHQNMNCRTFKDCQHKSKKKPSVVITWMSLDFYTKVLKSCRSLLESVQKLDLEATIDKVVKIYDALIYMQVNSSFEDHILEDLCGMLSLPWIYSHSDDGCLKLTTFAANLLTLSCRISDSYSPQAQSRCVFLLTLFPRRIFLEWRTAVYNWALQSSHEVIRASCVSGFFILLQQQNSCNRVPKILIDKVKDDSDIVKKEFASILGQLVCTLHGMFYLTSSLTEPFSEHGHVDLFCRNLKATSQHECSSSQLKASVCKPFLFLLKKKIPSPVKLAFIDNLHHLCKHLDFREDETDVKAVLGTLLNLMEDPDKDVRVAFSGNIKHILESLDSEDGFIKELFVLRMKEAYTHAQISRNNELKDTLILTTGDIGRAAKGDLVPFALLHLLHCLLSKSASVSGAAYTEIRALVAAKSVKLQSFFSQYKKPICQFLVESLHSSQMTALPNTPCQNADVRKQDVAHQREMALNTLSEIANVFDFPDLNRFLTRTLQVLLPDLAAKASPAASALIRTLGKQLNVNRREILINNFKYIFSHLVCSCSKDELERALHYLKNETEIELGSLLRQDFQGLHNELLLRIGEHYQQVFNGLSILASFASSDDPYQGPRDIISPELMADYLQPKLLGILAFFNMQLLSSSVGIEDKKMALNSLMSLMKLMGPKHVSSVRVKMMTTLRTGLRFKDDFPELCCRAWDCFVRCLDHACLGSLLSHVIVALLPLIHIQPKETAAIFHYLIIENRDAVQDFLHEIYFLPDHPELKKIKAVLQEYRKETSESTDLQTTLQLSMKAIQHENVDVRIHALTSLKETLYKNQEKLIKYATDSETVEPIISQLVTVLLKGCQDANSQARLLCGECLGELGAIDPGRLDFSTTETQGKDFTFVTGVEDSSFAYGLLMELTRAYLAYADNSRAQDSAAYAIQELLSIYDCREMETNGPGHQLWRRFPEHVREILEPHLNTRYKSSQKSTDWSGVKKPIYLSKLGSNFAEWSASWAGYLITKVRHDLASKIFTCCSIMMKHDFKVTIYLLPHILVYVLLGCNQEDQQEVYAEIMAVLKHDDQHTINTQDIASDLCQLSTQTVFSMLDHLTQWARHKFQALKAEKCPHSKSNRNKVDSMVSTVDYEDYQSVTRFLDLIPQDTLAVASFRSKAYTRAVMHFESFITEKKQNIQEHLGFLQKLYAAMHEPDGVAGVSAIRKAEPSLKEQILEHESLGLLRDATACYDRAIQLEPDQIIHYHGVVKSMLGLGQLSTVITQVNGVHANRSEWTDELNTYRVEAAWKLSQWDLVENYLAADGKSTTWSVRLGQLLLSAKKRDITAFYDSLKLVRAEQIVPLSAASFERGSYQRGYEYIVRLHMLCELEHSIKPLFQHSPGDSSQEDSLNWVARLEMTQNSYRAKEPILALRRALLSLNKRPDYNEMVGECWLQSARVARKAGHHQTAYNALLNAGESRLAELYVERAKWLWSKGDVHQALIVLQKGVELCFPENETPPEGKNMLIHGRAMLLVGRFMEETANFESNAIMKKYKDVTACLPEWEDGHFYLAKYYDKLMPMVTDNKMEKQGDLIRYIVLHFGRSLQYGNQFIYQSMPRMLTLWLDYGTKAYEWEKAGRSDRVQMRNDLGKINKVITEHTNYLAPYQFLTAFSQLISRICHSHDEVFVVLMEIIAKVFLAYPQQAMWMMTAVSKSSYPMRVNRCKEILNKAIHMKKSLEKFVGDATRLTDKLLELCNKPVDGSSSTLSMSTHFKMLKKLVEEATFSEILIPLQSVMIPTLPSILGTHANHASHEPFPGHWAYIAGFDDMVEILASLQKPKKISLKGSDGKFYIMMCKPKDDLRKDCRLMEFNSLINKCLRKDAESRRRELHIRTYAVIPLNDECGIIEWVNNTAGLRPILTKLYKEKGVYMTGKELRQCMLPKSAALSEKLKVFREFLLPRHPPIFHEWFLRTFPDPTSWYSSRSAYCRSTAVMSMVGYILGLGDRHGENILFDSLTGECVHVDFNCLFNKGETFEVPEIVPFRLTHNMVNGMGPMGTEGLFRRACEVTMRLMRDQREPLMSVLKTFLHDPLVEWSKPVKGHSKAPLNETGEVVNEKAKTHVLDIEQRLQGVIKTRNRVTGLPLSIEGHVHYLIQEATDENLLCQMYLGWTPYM
T2 sequence (Q8WXE1 whole entry partner): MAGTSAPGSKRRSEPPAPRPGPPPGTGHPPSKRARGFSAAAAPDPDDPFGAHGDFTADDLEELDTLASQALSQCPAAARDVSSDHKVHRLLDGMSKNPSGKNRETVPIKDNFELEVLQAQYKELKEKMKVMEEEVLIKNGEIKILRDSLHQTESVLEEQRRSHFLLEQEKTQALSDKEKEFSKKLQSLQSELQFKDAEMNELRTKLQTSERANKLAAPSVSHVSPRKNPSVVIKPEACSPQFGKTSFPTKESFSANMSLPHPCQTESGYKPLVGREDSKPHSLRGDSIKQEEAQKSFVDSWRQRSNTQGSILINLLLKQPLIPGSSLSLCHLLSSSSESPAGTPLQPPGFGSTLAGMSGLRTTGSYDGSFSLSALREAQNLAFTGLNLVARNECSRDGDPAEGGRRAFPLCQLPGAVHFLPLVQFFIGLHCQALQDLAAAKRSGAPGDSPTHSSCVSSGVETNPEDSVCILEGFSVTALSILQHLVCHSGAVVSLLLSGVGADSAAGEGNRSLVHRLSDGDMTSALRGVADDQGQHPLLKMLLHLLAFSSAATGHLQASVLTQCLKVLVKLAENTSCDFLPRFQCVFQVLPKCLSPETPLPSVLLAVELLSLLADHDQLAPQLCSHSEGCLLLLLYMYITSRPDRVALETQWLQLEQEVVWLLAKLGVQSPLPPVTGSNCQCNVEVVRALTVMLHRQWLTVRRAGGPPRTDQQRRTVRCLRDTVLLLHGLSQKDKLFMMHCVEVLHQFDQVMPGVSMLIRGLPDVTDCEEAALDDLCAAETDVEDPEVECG

Molecule | IC50 (ATM) [nM] | IC50 (ATR) [nM]
8-[6-[4-(dimethylamino)-1-piperidyl]-3-pyridyl-3-methyl-1-tetrahydropyran-4-yl-imidazo[4,5-c]quinolin-2-one [Example 39] | 2.69 | > 30000
CO[C@H]1CC[C@H](n2c(=O)n(C)c3cnc4ccc(-c5ccc(N6CC(N(C)C)C6)nc5)cc4c32)C1 (single isomer, unassigned) [Example 22, 8-[6-[3-(dimethylamino)azetidin-1-yl]-3-pyridyl]-1-[trans-3-methoxycyclopentyl]-3-methyl-imidazo[4,5-c]quinolin-2-one] | 13.4 | 6710
CO[C@H]1CC[C@H](n2c(=O)n(C)c3cnc4ccc(-c5ccc(N6CC(N(C)C)C6)nc5)cc4c32)C1 (single isomer, unassigned) [Example 23, 8-[6-[3-(dimethylamino)azetidin-1-yl]-3-pyridyl]-1-[trans-3-methoxycyclopentyl]-3-methyl-imidazo[4,5-c]quinolin-2-one] | 22.8 | > 24000
CO[C@H]1CC[C@H](n2c(=O)n(C)c3cnc4cc(F)c(-c5ccc(N6CC(N(C)C)C6)nc5)cc4c32)C1 (single isomer, unassigned) [Example 29, 8-[6-[3-(dimethylamino)azetidin-1-yl]-3-pyridyl]-7-fluoro-1-[trans-3-methoxycyclopentyl]-3-methyl-imidazo[4,5-c]quinolin-2-one] | 9.68 | > 30000
CO[C@H]1CC[C@H](n2c(=O)n(C)c3cnc4cc(F)c(-c5ccc(N6CC(N(C)C)C6)nc5)cc4c32)C1 (single isomer, unassigned) [Example 30, 8-[6-[3-(dimethylamino)azetidin-1-yl]-3-pyridyl]-7-fluoro-1-[trans-3-methoxycyclopently]-3-methyl-imidazo[4,5-c]quinolin-2-one] | 24.9 | > 30000
CO[C@H]1CC[C@@H](n2c(=O)n(C)c3cnc4ccc(-c5ccc(N6CC[C@@H](N(C)C)C6)nc5)cc4c32)CC1 (single isomer, unassigned) [Example 44] | 0.889 | 1120
CO[C@@H]1CCC[C@H](n2c(=O)n(C)c3cnc4ccc(-c5ccc(N6CCC(N(C)C)CC6)nc5)cc4c32)C1 (single isomer, unassigned) [Example 45] | 0.618 | > 30000
CO[C@@H]1CCC[C@H](n2c(=O)n(C)c3cnc4ccc(-c5ccc(N6CCC(N(C)C)CC6)nc5)cc4c32)C1 (single isomer, unassigned) [Example 46, 8-[6-[4-(dimethylamino)-1-piperidyl]-3-pyridyl]-1-[cis-3-methoxycyclohexyl]-3-methyl-imidazo[4,5-c]quinolin-2-one] | 7.7 | > 10000
CO[C@@H]1CCC[C@H](n2c(=O)n(C)c3cnc4ccc(-c5ccc(N6CC[C@@H](N(C)C)C6)nc5)cc4c32)C1 (single isomer, unassigned) [Example 47] | 2.7 | 1800
CO[C@@H]1CCC[C@H](n2c(=O)n(C)c3cnc4ccc(-c5ccc(N6CC[C@@H](N(C)C)C6)nc5)cc4c32)C1 (single isomer, unassigned) [Example 48] | 2.34 | 201
CO[C@@H]1CCC[C@H](n2c(=O)n(C)c3cnc4ccc(-c5ccc(N6CC(N(C)C)C6)nc5)cc4c32)C1 (single isomer, unassigned) [Example 49, 8-[6-[3-(dimethylamino)azetidin-1-yl]-3-pyridyl]-1-[cis-3-methoxycyclohexyl]-3-methyl-imidazo[4,5-c]quinoline-2-one] | 15.3 | 1910
CO[C@@H]1CCC[C@H](n2c(=O)n(C)c3cnc4ccc(-c5ccc(N6CC(N(C)C)C6)nc5)cc4c32)C1 (single isomer, unassigned) [Example 50, 8-[6-[3-(dimethylamino)azetidin-1-yl]-3-pyridyl]-1-[cis-3-methoxycyclohexyl]-3-methyl-imidazo[4,5-c]quinolin-2-one] | 16.7 | 1970
CO[C@H]1CCC[C@H](n2c(=O)n(C)c3cnc4ccc(-c5ccc(N6CC[C@@H](N(C)C)C6)nc5)cc4c32)C1 (single isomer, unassigned) [Example 51] | 0.589 | 90.6
CO[C@H]1CCC[C@H](n2c(=O)n(C)c3cnc4ccc(-c5ccc(N6CC[C@@H](N(C)C)C6)nc5)cc4c32)C1 (single isomer, unassigned) [Example 52] | 0.112 | 61.6
CO[C@H]1CCC[C@H](n2c(=O)n(C)c3cnc4ccc(-c5ccc(N6CCC(N(C)C)CC6)nc5)cc4c32)C1 (single isomer, unassigned) [Example 53, 8-[6-[4-(dimethylamino)-1-piperidyl]-3-pyridyl]-1-[trans-3-methoxycyclohexyl]-3-methyl-imidazo[4,5-c]quinolin-2-one] | 0.269 | > 21400
CO[C@H]1CCC[C@H](n2c(=O)n(C)c3cnc4ccc(-c5ccc(N6CCC(N(C)C)CC6)nc5)cc4c32)C1 (single isomer, unassigned) [Example 54, 8-[6-[4-(dimethylamino)-1-piperidyl]-3-pyridyl]-1-[trans-3-methoxycyclohexyl]-3-methyl-imidazo[4,5-c]quinolin-2-one] | 0.061 | > 25600
CO[C@H]1CCC[C@H](n2c(=O)n(C)c3cnc4ccc(-c5ccc(N6CC(N(C)C)C6)nc5)cc4c32)C1 (single isomer, unassigned) [Example 55, 8-[6-[3-(dimethylamino)azetidin-1-yl]-3-pyridyl]-1-[trans-3-methoxycyclohexyl]-3-methyl-imidazo[4,5-c]quinolin-2-one] | 3.38 | 804
CO[C@H]1CCC[C@H](n2c(=O)n(C)c3cnc4ccc(-c5ccc(N6CC(N(C)C)C6)nc5)cc4c32)C1 (single isomer, unassigned) [Example 56, 8-[6-[3-(dimethylamino)azetidin-1-yl]-3-pyridyl]-1-[trans-3-methoxycyclohexyl]-3-methyl-imidazo[4,5-c]quinolin-2-one] | 15.7 | 1190
CO[C@H]1CC[C@H](n2c(=O)n(C)c3cnc4ccc(-c5ccc(N6CC[C@@H](N(C)C)C6)nc5)cc4c32)C1 [Example 5, 8-[6-[(3R)-3-(Dimethylamino)pyrrolidin-1-yl]-3-pyridyl]-1-[(1S,3S)-3-methoxycyclopentyl]-3-methyl-imidazo[4,5-c]quinolin-2-one] | 0.312 | 284
CO[C@H]1C[C@@H](n2c(=O)n(C)c3cnc4cc(F)c(-c5ccc(N6CC[C@@H](N(C)C)C6)nc5)cc4c32)C1 [Example 6, 8-[6-[(3R)-3-(Dimethylamino)pyrrolidin-1-yl]-3-pyridyl]-7-fluoro-1-(cis-3-methoxycyclobutyl)-3-methyl-imidazo[4,5-c]quinolin-2-one] | 1.7 | > 30000
CN(C)[C@@H]1CCN(c2ccc(-c3ccc4ncc5c(c4c3)n([C@H]3CCOC3)c(=O)n5C)cn2)C1 [Example 8] | 1.04 | 261
CN(C)[C@@H]1CCN(c2ccc(-c3ccc4ncc5c(c4c3)n([C@H]3CCCOC3)c(=O)n5C)cn2)C1 [Example 9] | 0.842 | 2480
CO[C@H]1C[C@@H](n2c(=O)n(C)c3cnc4ccc(-c5ccc(N6CC[C@@H](N(C)C)C6)nc5)cc4c32)C1 [Example 10] | 0.752 | 3210
CO[C@H]1C[C@H](n2c(=O)n(C)c3cnc4ccc(-c5ccc(N6CC[C@@H](N(C)C)C6)nc5)cc4c32)C1 [Example 11] | 0.77 | 1080
CN(C)[C@@H]1CCN(c2ccc(-c3ccc4ncc5c(c4c3)n(C3CCOCC3)c(=O)n5C)cn2)C1 [Example 13] | > 23.9 | –
CN(C)[C@@H]1CCN(c2ccc(-c3cc4c(cc3F)ncc3c4n([C@@H]4CCCOC4)c(=O)n3C)cn2)C1 [Example 14] | 1.51 | –
